Measured values published in ChEMBL document CHEMBL1201862, “PubChem BioAssay data set” (2004).
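Results reflect a 48-hour exposure of cells in 96-well plates to compound at five concentrations. The concentration for 50% growth inhibition is given as GI50.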 Active and inactive are the calls of the source. No stated cut-off is given here; in the data, active = GI50 up to about 1.1 µM and inactive = higher.

Assays:
Test in all cases: NCI tumour cell line growth inhibition, 48 h
SF-539 = test system: SF-539
PC-3 = test system: PC-3
RPMI-8226 = test system: RPMI-8226
HOP-92 = test system: HOP-92
OVCAR-5 = test system: OVCAR-5
HCT-116 = test system: HCT-116
SNB-19 = test system: SNB-19
ACHN = test system: ACHN
EKVX = test system: EKVX
SK-MEL-5 = test system: SK-MEL-5
K562 = test system: K562
BT-549 = test system: BT-549
KM12 = test system: KM12
HT-29 = test system: HT-29
NCI-H226 = test system: NCI-H226
SN12C = test system: SN12C
A498 = test system: A498
SNB-75 = test system: SNB-75
HCT-15 = test system: HCT-15

Measured: GI50

CNc1ncnc2c1cnn2COCC(O)CO (stereo not given)
> 100 µM: HCT-15
inactive: SF-539 > 100 µM | PC-3 > 100 µM | RPMI-8226 > 100 µM | HOP-92 > 100 µM | OVCAR-5 > 100 µM | HCT-116 > 100 µM | SNB-19 > 100 µM | ACHN > 100 µM | EKVX > 100 µM | SK-MEL-5 > 100 µM | K562 > 100 µM | BT-549 > 100 µM | KM12 > 100 µM | HT-29 > 100 µM | NCI-H226 > 100 µM | SN12C > 100 µM | A498 > 100 µM | SNB-75 > 100 µM

C=C1CC[C@@]2(OC1)OC1C[C@H]3[C@@H]4CC=C5C[C@@H](O)CC(OC6OCC(OC(=O)[C@@H](O)[C@@H](C)CC)C(OC(C)=O)C6OC6OC(C)C(O)C(O)C6O)[C@]5(C)[C@H]4CC[C@]3(C)C1[C@@H]2C (stereo not given in full)
inactive: SF-539 2.31 µM | PC-3 1.67 µM | RPMI-8226 2.09 µM | HOP-92 3.3 µM | OVCAR-5 2.04 µM | HCT-116 1.65 µM | SNB-19 1.96 µM | ACHN 2.28 µM | EKVX 2.34 µM | SK-MEL-5 1.97 µM | K562 2.01 µM | BT-549 3.76 µM | KM12 2.14 µM | HT-29 2.82 µM | NCI-H226 2.64 µM | SN12C 2.25 µM | A498 1.81 µM | SNB-75 2 µM
1.91 µM: HCT-15

CCOC(=O)NN(C(=O)OCC)C(C(=O)C1=CCCCC1)N(NC(=O)OCC)C(=O)OCC
inactive: SF-539 9.57 µM | PC-3 > 100 µM | RPMI-8226 > 100 µM | HOP-92 > 100 µM | OVCAR-5 > 100 µM | HCT-116 > 100 µM | SNB-19 > 100 µM | ACHN > 100 µM | EKVX > 100 µM | SK-MEL-5 > 100 µM | K562 > 100 µM | BT-549 > 100 µM | KM12 > 100 µM | HT-29 > 100 µM | NCI-H226 > 100 µM | SN12C > 100 µM | A498 22.6 µM | SNB-75 > 100 µM
> 100 µM: HCT-15

Nc1nc(CCl)nc(N2CCOCC2)n1
16 µM: HCT-15
inactive: SF-539 22.8 µM | PC-3 72.1 µM | RPMI-8226 32.4 µM | HOP-92 16.8 µM | OVCAR-5 19.9 µM | HCT-116 21.5 µM | SNB-19 > 100 µM | ACHN 16.6 µM | EKVX 17.6 µM | SK-MEL-5 20.1 µM | K562 23.4 µM | BT-549 31.7 µM | KM12 32.1 µM | HT-29 32.7 µM | NCI-H226 37.4 µM | SN12C 36.1 µM | A498 33 µM | SNB-75 33.5 µM

C=C(C(=O)O[C@H]1C/C(C)=C/CC/C(CO)=C/[C@H]2C(=O)OC(=C)[C@H]12)C(O)CO (stereo not given in full)
8.05 µM: HCT-15
inactive: SF-539 4.71 µM | PC-3 9.77 µM | RPMI-8226 2 µM | HOP-92 8.75 µM | OVCAR-5 17.3 µM | HCT-116 7.18 µM | SNB-19 21.4 µM | ACHN 12.3 µM | EKVX 17.3 µM | SK-MEL-5 15.5 µM | K562 4.08 µM | BT-549 14.4 µM | KM12 20.4 µM | HT-29 17.9 µM | NCI-H226 17.9 µM | SN12C 15.3 µM | A498 18.5 µM | SNB-75 18.7 µM

CC(=O)C1(c2ccccc2)CCN(Cn2sc3nc(C)cc(C)c3c2=O)CC1
26.5 µM: HCT-15
inactive: SF-539 22.5 µM | PC-3 37.6 µM | RPMI-8226 56.9 µM | HOP-92 59.4 µM | OVCAR-5 19.5 µM | HCT-116 23.1 µM | SNB-19 > 100 µM | ACHN 17.8 µM | EKVX 23.3 µM | SK-MEL-5 30.1 µM | K562 26.7 µM | BT-549 38.8 µM | KM12 > 100 µM | HT-29 19.1 µM | NCI-H226 97.5 µM | SN12C 21.4 µM | A498 78.2 µM | SNB-75 28.3 µM

CCOC(=O)/C=C(/OCC)[C@@H]1C(C(=O)c2ccc(Cl)cc2)[C@H]1/C(=C\C(=O)OCC)OCC (stereo not given in full)
inactive: SF-539 > 100 µM | PC-3 > 30.5 µM | RPMI-8226 5.35 µM | HOP-92 > 34.7 µM | OVCAR-5 > 100 µM | HCT-116 15.5 µM | SNB-19 > 100 µM | ACHN > 100 µM | EKVX > 100 µM | SK-MEL-5 24.9 µM | K562 4.55 µM | BT-549 > 100 µM | KM12 56.9 µM | HT-29 > 51.2 µM | NCI-H226 > 100 µM | SN12C > 100 µM | A498 > 100 µM | SNB-75 25.5 µM
> 100 µM: HCT-15

CCCN(CCC)C1CCc2c(ccc3cc[nH]c23)C1 (stereo not given)
48.1 µM: HCT-15
inactive: SF-539 > 100 µM | PC-3 35 µM | RPMI-8226 41 µM | HOP-92 27.7 µM | OVCAR-5 > 100 µM | HCT-116 66.8 µM | SNB-19 > 100 µM | ACHN > 100 µM | EKVX > 100 µM | SK-MEL-5 20.7 µM | K562 30.5 µM | BT-549 > 100 µM | KM12 60.4 µM | HT-29 33.5 µM | NCI-H226 > 100 µM | SN12C > 100 µM | A498 > 100 µM | SNB-75 25.6 µM

CNC(=O)OCc1c(COC(=O)NC)c(-c2ccc(-c3ccccc3)cc2)n(C)c1C
inactive: SF-539 1.86 µM | PC-3 2.52 µM | HOP-92 2.99 µM | OVCAR-5 2.35 µM | HCT-116 2.64 µM | SNB-19 3.33 µM | EKVX 2.44 µM | SK-MEL-5 3.1 µM | BT-549 1.21 µM | KM12 8.04 µM | HT-29 2.7 µM | NCI-H226 7.98 µM | SNB-75 2.95 µM
2.17 µM: HCT-15
active: RPMI-8226 0.467 µM | ACHN 0.493 µM | K562 0.822 µM | SN12C 0.726 µM | A498 0.504 µM

C=C(Cl)C(Cl)(CBr)CCCC(C)C (stereo not given)
inactive: SF-539 9.98 µM | PC-3 13.2 µM | RPMI-8226 2.92 µM | HOP-92 17.2 µM | OVCAR-5 19.9 µM | HCT-116 6.47 µM | SNB-19 18.7 µM | ACHN 13.3 µM | EKVX 18.3 µM | SK-MEL-5 > 100 µM | K562 26.5 µM | BT-549 > 85.9 µM | KM12 11.8 µM | HT-29 4.42 µM | NCI-H226 > 100 µM | SN12C > 100 µM | A498 19.4 µM | SNB-75 8.83 µM
> 49.3 µM: HCT-15

CC(C)(C)c1cc(OCc2nn3c(Cc4ccccc4)nnc3s2)c(Cl)cc1OCc1nn2c(Cc3ccccc3)nnc2s1
inactive: SF-539 55.5 µM | PC-3 20.1 µM | RPMI-8226 10.6 µM | HOP-92 16.2 µM | OVCAR-5 60.8 µM | HCT-116 16.6 µM | SNB-19 80.9 µM | ACHN 14.4 µM | EKVX 12.9 µM | SK-MEL-5 8.65 µM | K562 17.3 µM | BT-549 25.1 µM | KM12 26.9 µM | HT-29 23.3 µM | NCI-H226 > 100 µM | SN12C 34.8 µM | A498 15 µM | SNB-75 91 µM
19.6 µM: HCT-15

O=C(O)CSc1nnc2c3ccccc3c3ccccc3c2n1
44.5 µM: HCT-15
inactive: SF-539 52.2 µM | PC-3 50.2 µM | RPMI-8226 32.4 µM | HOP-92 > 100 µM | OVCAR-5 > 100 µM | HCT-116 38.2 µM | SNB-19 44.7 µM | ACHN 53.6 µM | EKVX 63 µM | SK-MEL-5 45.9 µM | K562 59.6 µM | BT-549 > 100 µM | KM12 42 µM | HT-29 68.4 µM | NCI-H226 85.7 µM | SN12C 38.9 µM | A498 > 100 µM | SNB-75 36.6 µM

O=C1NCCN1/N=C/c1c(Cl)n(-c2ccccc2)c2ccccc12
inactive: SF-539 10.4 µM | PC-3 29 µM | RPMI-8226 22.4 µM | HOP-92 23.6 µM | OVCAR-5 44.1 µM | HCT-116 19.5 µM | SNB-19 23.1 µM | ACHN 23.9 µM | EKVX 25.5 µM | SK-MEL-5 15.5 µM | K562 24.5 µM | BT-549 15.4 µM | KM12 15.7 µM | HT-29 17.4 µM | NCI-H226 20.4 µM | SN12C 18.7 µM | A498 17.5 µM | SNB-75 21.1 µM
17.6 µM: HCT-15

[N-]=[N+]=Nc1c(-c2ccccc2)c(Cl)nc2ccccc12
28.4 µM: HCT-15
inactive: SF-539 43.8 µM | PC-3 26.2 µM | RPMI-8226 29.7 µM | HOP-92 22 µM | OVCAR-5 > 100 µM | HCT-116 47.8 µM | SNB-19 29.9 µM | ACHN 19.6 µM | EKVX 33 µM | SK-MEL-5 17.3 µM | K562 45.7 µM | BT-549 23.2 µM | KM12 19.1 µM | HT-29 19.7 µM | NCI-H226 22.2 µM | SN12C 32.5 µM | A498 27.5 µM | SNB-75 29.9 µM

CN(C(=O)c1ccncc1)c1ccccc1
inactive: SF-539 > 100 µM | PC-3 > 100 µM | RPMI-8226 > 100 µM | HOP-92 > 100 µM | OVCAR-5 > 100 µM | HCT-116 > 100 µM | SNB-19 > 100 µM | ACHN > 100 µM | EKVX > 100 µM | SK-MEL-5 > 100 µM | K562 > 100 µM | BT-549 > 100 µM | KM12 > 100 µM | HT-29 > 100 µM | NCI-H226 > 100 µM | SN12C > 100 µM | A498 > 100 µM | SNB-75 > 100 µM
> 100 µM: HCT-15
